{"source": "patent US10330670B2", "about": "“Therapeutic or prophylactic agent for retinopathy of prematurity, testing method for retinopathy of prematurity, and screening method for therapeutic or prophylactic substance for retinopathy of prematurity” (TOKYO UNIVERSITY OF AGRICULTURE AND TECHNOLOGY, priority 2012, dated 2019)", "key": {"[1]": {"tested_on": "human mast cell strain HMC-1", "test": "Degranulation of mast cells induced by variation of oxygen concentration, β-hexosaminidase release", "assay_type": "cell-based", "conditions": "75% O2 24 hours then 20% O2 12 hours, p<0.05", "text": "It has been known that human mast cell strain HMC-1 is a cell strain derived from leukemia, that it has a characteristic as a mast cell, and that it includes β-hexosaminidase in its granules. With reference to a previous report (European Journal of Immunology, Vol. 29, 2645-2649 (1999)), HMC-1 cells were suspended in an α-MEM culture medium to which 10% (v/v) fetal calf serum and a usual dose of antibiotic had been added for preparation of a mast cell suspension with a cell concentration of 5×10^5 cells/ml. Throughout the test period including the period in the high oxygen concentration environment, all the cells were subjected to an environment of 5% (v/v) CO2, 37° C. as the cultivation condition other than the oxygen concentration.\nThe mast cell suspension was dispensed on a 96-well plate at 4×10^5 cells/well. Cromolyn and each of the seven candidate substances were added to obtain the following concentrations. As controls (media) to which the agent was not added and as non-treated examples to which the marker substance release induction process was not carried out, wells to which neither cromolyn nor the candidate substances was added were set.\nThe marker substance (β-hexosaminidase) release induction process and the step for contact with the mast cells HMC-1 that had been subjected to the marker substance release induction process were performed by retaining the 96-well plate in the high oxygen concentration environment (75 v/v % oxygen) for 24 hours and in the normal oxygen environment (20 v/v % oxygen) for 12 hours. For the non-treated example, the 96-well plate was retained in the normal oxygen environment (20 v/v % oxygen) for 24 hours and further retained in the normal oxygen environment for 12 hours.\nThe detection and measurement of the marker substance (β-hexosaminidase) that had been released by degranulation of the mast cells in the contacting step were carried out by a previously reported method (Eur. J. Immunol. 19 (1989) 2251-2256). To put it briefly, the step was carried out in the following manner. After having collecting the supernatant from the respective wells after the contacting step, the pellets (cells) were dissolved in a 0.5% triton X-100-containing α-minimal essential medium (α-MEM: a product of Gibco) at the same volume. In the respective wells of the 96-well plate, 5 μl supernatant or cell lysates were mixed with a 50 μl substrate solution (1.3 mg/ml p-nitrophenyl-N-acetyl-β-D-glucosamine;\npH 4.5 in 100 mM sodium citrate). After incubation at 37° C. for 60 minutes, 150 μl, 200 mM solution of glycine (pH 10.7) was added, and the reaction was stopped. The absorbance was measured at 414 nm. The (%) of the released marker substance (β-hexosaminidase) was calculated according to the following expression; OD(supernatant)/(OD(supernatant).+OD(pellet))×100.\nThe test was performed by three-sample test, an average and standard deviation were calculated on the basis of the measurement results for statistic analysis by ANOVA+ Tukey's test."}, "[2]": {"tested_on": "retinal neovascularization", "test": "Influence of nafamostat mesilate (NM) on retinal neovascularization in ROP model mice", "assay_type": "in vivo", "conditions": "1 mg/kg intraperitoneally every day P12-P17", "procedure": "For the ROP models, the BMCMC-injected W^sh/W^sh mice produced in Reference Example 2 (administered by an amount of 1×10^6 cells/20 μL) were used, and W^sh/W^sh mice to which saline was administered by the same volume were used as the control group. The oxygen concentration for the period P0-P17 was replaced by the same schedule as Example 1 (see FIG. 7). 1 mg/kg/20 μl NM dissolved in saline or saline was injected to the mice intraperitoneally in the period P12-P17 every day. On P17, the mice were slaughtered and eyes are collected, and evaluation of neovascularization was performed in the similar manner as Example 1. The results are illustrated in FIG. 8. In FIG. 8 the sign “*” denotes P<0.05 (compared with the number of nuclei of the endothelial cells of the vessels of the control mice)."}, "[3]": {"tested_on": "retinal neovascularization", "test": "Influence of cromolyn on retinal neovascularization in oxygen-induced ROP model mice", "assay_type": "in vivo", "conditions": "eyes on P17", "text": "As have been reported before (Invest. Ophthalmol. Vis. Sci., 35, 101-111 (1994), etc.), for the +/+ mice, +/W^sh mice, and W^sh/W^sh mice, respectively, neonatal mice were placed in a closed chamber containing 75 v/v % O2 together with their mother for lactation on P7, and this state was maintained for 5 days (P7-P12). Subsequently, this state was continued for further 5 days (P12-P17) in the normal oxygen environment (21 v/v % O2) for induction of oxygen-induced retinopathy (OIR) for use as experimental ROP models. The control mice were raised in the normal oxygen environment (indoor environment, 25° C., 21 v/v % O2. The same applies for the description of Examples.) throughout the test period. Note that the symbol “P”, which refers to a date, herein denotes that the date is a postnatal date, and “P7”, for example, refers to a 7th postnatal date. On P17, eyes were collected from the mice with ROP, fixed with Davidson's fixative overnight, and then embedded with paraffin. Paraffin-embedded serial sections axially sectioned at 6 μm were obtained, stained with HE, images were taken at the magnification 20, and the number of nuclei of the endothelial cells on the side of the vitreous body of the internal limiting membrane was counted. In the immunohistochemical test, the sections were subjected to incubation at 4° C. overnight together with anti-PECAM-1 antibody (a product of Santa Cruz Biotechnology, Inc.) having been diluted at 1:100 (in capacity ratio). To examine an influence in various states of different oxygen concentration, mice for use in the tests were raised in a period from P0 to P17 according to the schedule in which the normal oxygen environment was used in the period P0-P7 (21 v/v % oxygen), the high oxygen concentration environment in the period P7-P12 (75 v/v % oxygen), and the normal oxygen environment in the period P12-P17. On P7 and P12, the oxygen concentration environment was replaced. The neonatal mice of +/+ mice and the W^sh/W^sh mice were divided into three groups, and cromolyn (a product of Sigma Aldrich Corporation) dissolved in phosphate buffered saline (PBS) was injected to the mice at the concentration of 50 mg/kg/20 μL intraperitoneally every day. PBS was administered to the control group at the same volume. Administration methods of the agent for the respective groups were as illustrated in FIG. 5. Specifically, for the first group, cromolyn was administered to the neonatal mice from P6 to P16. […] Subsequently, similarly to Reference Example 1, the number of nuclei of the endothelial cell was counted after staining the ocular sections by HE, and thereby influences of cromolyn on the retinal neovascularization in the +/+ and W^sh/W^sh neonatal mice was evaluated in the similar manner as Reference Example 1."}}, "note": "“Also recorded” adds a separate entry of the source.", "data": [{"smiles": "CC(C)c1ccc2oc3nc(N)c(C(=O)O)cc3c(=O)c2c1", "note": "[amlexanox]", "values": [{"measurement": "degranulation (ratio of released β-hexosaminidase) compared with controls (media)", "setting": "[1]; 1 μM amlexanox", "result": "inhibited the degranulation"}]}, {"smiles": "N=C(N)c1ccc2cc(OC(=O)c3ccc(N=C(N)N)cc3)ccc2c1", "note": "[NM, nafamostat mesilate]", "values": [{"measurement": "retinal neovascularization (neovascular nuclei)", "setting": "[2]; +/+ mice with induced ROP", "result": "inhibited retinal neovascularization"}, {"measurement": "retinal neovascularization (neovascular nuclei)", "setting": "[2]; BMCMC-injected W^sh/W^sh mice with induced ROP", "result": "inhibited retinal neovascularization"}]}, {"smiles": "O=C(O)c1cc(=O)c2c(OCC(O)COc3cccc4oc(C(=O)O)cc(=O)c34)cccc2o1", "note": "[cromolyn, cromoglycic acid]", "values": [{"measurement": "degranulation (ratio of released β-hexosaminidase) compared with controls (media)", "setting": "[1]; 10 ng/ml", "result": "inhibited the degranulation"}, {"measurement": "retinal neovascularization (number of nuclei of the endothelial cell, HE-stained ocular sections)", "setting": "[3]; +/+ mice, first group: 50 mg/kg intraperitoneally every day P6-P16", "result": "a level as low as that in the W^sh/W^sh mice; also recorded: decreased pathological neovascularization"}, {"measurement": "retinal neovascularization (number of nuclei of the endothelial cell, HE-stained ocular sections)", "setting": "[3]; +/+ mice, third group: 50 mg/kg intraperitoneally every day P11-P16", "result": "a level as low as that in the W^sh/W^sh mice; also recorded: significantly small; also recorded: less than those in the W^sh/W^sh mice"}, {"measurement": "retinal neovascularization (number of nuclei of the endothelial cell, HE-stained ocular sections)", "setting": "[3]; second group: 50 mg/kg intraperitoneally every day P6-P11 (high oxygen period)", "result": "did not influence; also recorded: no effect of inhibition"}, {"measurement": "retinal neovascularization (number of nuclei of the endothelial cell, HE-stained ocular sections)", "setting": "[3]; second group: 50 mg/kg intraperitoneally every day P6-P11 (high oxygen period), listed as Cromolyn", "result": "did not influence"}]}, {"smiles": "Cc1cccn2c(=O)c(-c3nnn[nH]3)cnc12", "note": "[pemirolast]", "values": [{"measurement": "degranulation (ratio of released β-hexosaminidase) compared with controls (media)", "setting": "[1]; 10 nM pemirolast", "result": "inhibited the degranulation"}]}, {"smiles": "CCOCC(O)COc1ccc(NC(=O)CC[S+](C)C)cc1", "note": "(stereo not drawn) [suplatast]", "values": [{"measurement": "degranulation (ratio of released β-hexosaminidase) compared with controls (media)", "setting": "[1]; 10 μM suplatast", "result": "inhibited the degranulation"}]}, {"smiles": "C[C@@H]1CN([C@H]2CC[C@](C#N)(c3ccc(F)cc3)CC2)CC[C@]1(C(=O)O)c1ccccc1", "note": "[levocabastine]", "values": [{"measurement": "degranulation (ratio of released β-hexosaminidase) compared with controls (media)", "setting": "[1]; 10 nM levocabastine", "result": "inhibited the degranulation"}]}, {"smiles": "NC1=NCC2c3ccccc3Cc3ccccc3N12", "note": "(stereo not drawn) [epinastine]", "values": [{"measurement": "degranulation (ratio of released β-hexosaminidase) compared with controls (media)", "setting": "[1]; 1 ng/ml", "result": "inhibited the degranulation"}]}]}
